Laboratory results as given in BindingDB's records for doi:10.1016/S0960-894X(01)80190-6 (n/a, 1994).

target: Lanosterol 14-alpha demethylase (Candida albicans) (UniProt P10613); experiment: In vitro inhibition of Lanosterol 14-alpha demethylase (Candida albicans CY1005)
Sequence (P10613 whole entry, looked up): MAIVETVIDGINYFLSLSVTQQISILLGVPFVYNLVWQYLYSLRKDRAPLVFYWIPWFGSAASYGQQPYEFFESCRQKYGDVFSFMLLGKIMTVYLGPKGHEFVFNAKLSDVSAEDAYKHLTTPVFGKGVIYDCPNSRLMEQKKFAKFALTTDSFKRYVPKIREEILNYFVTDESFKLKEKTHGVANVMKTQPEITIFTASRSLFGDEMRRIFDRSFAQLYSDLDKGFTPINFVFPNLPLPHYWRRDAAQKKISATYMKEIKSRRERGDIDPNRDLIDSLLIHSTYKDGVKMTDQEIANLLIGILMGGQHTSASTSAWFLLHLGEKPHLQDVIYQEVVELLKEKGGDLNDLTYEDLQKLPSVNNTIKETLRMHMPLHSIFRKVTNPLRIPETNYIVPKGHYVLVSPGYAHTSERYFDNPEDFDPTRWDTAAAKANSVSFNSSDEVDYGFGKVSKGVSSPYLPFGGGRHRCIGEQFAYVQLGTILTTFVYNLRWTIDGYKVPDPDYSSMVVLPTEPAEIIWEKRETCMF

IC50 [nM]	Structure (SMILES)
225	CCCCCCC/C=C/C[C@@H]1OC[C@H](C)[C@H](OC)[C@H]1COC(=O)CN
90.3	CCc1ccc(CC[C@@H]2CCC(C)(C)[C@H](OC)[C@H]2Cn2ccnc2)cc1
85	CC[C@@H](C)n1ncn(-c2ccc(N3CCN(c4ccc(OC[C@H]5CO[C@](Cn6cncn6)(c6ccc(Cl)cc6Cl)O5)cc4)CC3)cc2)c1=O [ITRAZOLE]
